Laboratory results from patent US10308644B2, “Heterocyclic compounds as immunomodulators” (Incyte Corporation, priority 2016, dated 2019).

These compounds were tested against PD-1/PD-L1 (Homo sapiens (Human), UniProt Q9NZQ7) (assay: PD-1/PD-L1 Homogeneous Time-Resolved Fluorescence (HTRF) Binding Assay). Details: recombinant human PD-1 (3 nM) and PD-L1 (10 nM), 25° C., PBS pH 7.4.
Sequence of PD-1/PD-L1 (Q9NZQ7 19-238): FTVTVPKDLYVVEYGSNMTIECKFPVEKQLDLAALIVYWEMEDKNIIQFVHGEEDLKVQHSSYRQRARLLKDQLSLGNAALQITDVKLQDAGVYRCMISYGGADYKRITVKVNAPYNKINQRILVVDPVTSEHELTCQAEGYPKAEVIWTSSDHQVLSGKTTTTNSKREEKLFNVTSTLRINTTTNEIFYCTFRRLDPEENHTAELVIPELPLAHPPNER
Summary of the method: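 Fc-tagged human PD-1 (25-167, 3 nM) and His-tagged PD-L1 (19-238, 10 nM) preincubated with inhibitor 40 min in PBS pH 7.4, 0.05% Tween-20, 0.1% BSA, 1% DMSO, 25 °C. Binding detected by HTRF (Eu anti-IgG/APC anti-His, 665/620 nm) after 60 min; IC50 from percent control activity.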
`Cc1c(Nc2nccc3cc(CNC[C@@H](C)O)cnc23)cccc1-c1cccc(-c2nc3cc(CN4CC[C@@](C)(C(=O)O)C4)cc(C#N)c3o2)c1C` [Example 192, (R)-1-((7-cyano-2-(3′-(3-(((R)-2-hydroxypropylamino)methyl)-1,7-naphtyridin-8-ylamino)-2,2′-dimethylbiphenyl-3-yl)benzo[d]oxazol-5-yl)methyl)-3-methylpyrrolidine-3-carboxylic acid] showed an IC50 of no more than 10 nM. Compound `Cc1c(-c2nc3cc(CN4CCC(C(=O)O)CC4)cc(C#N)c3o2)cccc1-c1cccc(NC(=O)c2nc3c(n2C)CC(C)N(C)C3)c1Cl` (stereo not drawn) [Example 162, 1-((2-(2′-chloro-2-methyl-3′-(1,5,6-trimethyl-4,5,6,7-tetrahydro-1H-imidazo[4,5-c]pyridine-2-carboxamido)biphenyl-3-yl)-7-cyanobenzo[d]oxazol-5-yl)methyl)piperidine-4-carboxylic acid] has an IC50 of no more than 10 nM. Work on `Cc1c(Nc2nccc3nccnc23)cccc1-c1cccc(-c2nc3cc(CN4CC[C@@H](C(=O)O)C4)cc(Cl)c3o2)c1C` [Example 11, (R)-1-((7-chloro-2-(2,2′-dimethyl-3′-(pyrido[4,3-b]pyrazin-5-ylamino)biphenyl-3-yl)benzo[d]oxazol-5-yl)methyl)pyrrolidine-3-carboxylic acid] yielded an IC50 of no more than 10 nM. `Cc1c(-c2nc3cc(CN4CC[C@@](C)(C(=O)O)C4)cc(C#N)c3o2)cccc1-c1cccc(-c2nc3c(s2)CN(C(=O)CN(C)CCO)C3)c1C` [Example 224, (R)-1-((7-cyano-2-(3′-(5-(2-((2-hydroxyethyl) (methyl)amino)acetyl)-5,6-dihydro-4H-pyrrolo[3,4-d]thiazol-2-yl)-2,2′-dimethylbiphenyl-3-yl)benzo[d]oxazol-5-yl)methyl)-3-methylpyrrolidine-3-carboxylic acid] showed an IC50 of no more than 10 nM. `Cc1c(-c2nc3cc(CN4CC[C@@H](C(=O)O)C4)cc(C#N)c3o2)cccc1-c1cccc(-c2nc3c(s2)CN(C(=O)CN2CC[C@H](O)C2)C3)c1C` [Example 112, (R)-1-((7-cyano-2-(3′-(5-(2-((S)-3-hydroxypyrrolidin-1-yl)acetyl)-5,6-dihydro-4H-pyrrolo[3,4-d]thiazol-2-yl)-2,2′-dimethylbiphenyl-3-yl)benzo[d]oxazol-5-yl)methyl)pyrrolidine-3-carboxylic acid] showed an IC50 of no more than 10 nM. Work on `CCN(C1CCN(c2cccc(-c3cccc(-c4nc5cc(CN6CC[C@@H](C(=O)O)C6)cc(C#N)c5o4)c3C)c2Cl)CC1)[C@H]1C[C@@H](O)C1` [Example 49, (R)-1-((2-(2′-chloro-3′-(4-(ethyl((1s,3s)-3-hydroxycyclobutyl)amino)piperidin-1-yl)-2-methylbiphenyl-3-yl)-7-cyanobenzo[d]oxazol-5-yl)methyl)pyrrolidine-3-carboxylic acid] yielded an IC50 of no more than 10 nM. `COCC1(C(=O)O)CCN(Cc2cc(C#N)c3oc(-c4cccc(-c5cccc(Nc6nccc7cc(CN8CC[C@@H](O)C8)cnc67)c5C)c4C)nc3c2)C1` (stereo partly drawn) [Example 185, 1-((7-cyano-2-(3′-(3-(((R)-3-hydroxypyrrolidin-1-yl)methyl)-1,7-naphthyridin-8-ylamino)-2,2′-dimethylbiphenyl-3-yl)benzo[d]oxazol-5-yl)methyl)-3-(methoxymethyl)pyrrolidine-3-carboxylic acid] showed an IC50 of no more than 10 nM. Compound `Cc1c(Nc2nccc3cc(CN4CC[C@@H](O)C4)cnc23)cccc1-c1cccc(-c2nc3cc(CNCCC(=O)O)cc(C#N)c3o2)c1C` [Example 101, (R)-3-((7-cyano-2-(3′-(3-((3-hydroxypyrrolidin-1-yl)methyl)-1,7-naphthyridin-8-ylamino)-2,2′-dimethylbiphenyl-3-yl)benzo[d]oxazol-5-yl)methylamino)propanoic acid] has an IC50 of no more than 10 nM. With `Cc1c(-c2nc3cc(CN4CC[C@@H](C(=O)O)C4)cc(C#N)c3o2)cccc1-c1cccc(-c2nc3c(s2)CN(C(=O)CN2CCN(C)CC2)C3)c1C` [Example 108, (R)-1-((7-cyano-2-(2,2′-dimethyl-3′-(5-(2-(4-methylpiperazin-1-yl)acetyl)-5,6-dihydro-4H-pyrrolo[3,4-d]thiazol-2-yl)biphenyl-3-yl)benzo[d]oxazol-5-yl)methyl)pyrrolidine-3-carboxylic acid] the IC50 was no more than 10 nM. Compound `Cc1c(-c2nc3cc(CN4CC5(CC(C(=O)O)C5)C4)cc(C#N)c3o2)cccc1-c1cccc(-c2nc3c(s2)CN(C(=O)CN(C)CCO)C3)c1C` [Example 230, 2-((7-cyano-2-(3′-(5-(2-((2-hydroxyethyl)(methyl)amino)acetyl)-5,6-dihydro-4H-pyrrolo[3,4-d]thiazol-2-yl)-2,2′-dimethylbiphenyl-3-yl)benzo[d]oxazol-5-yl)methyl)-2-azaspiro[3.3]heptane-6-carboxylic acid] has an IC50 of no more than 10 nM. For `Cc1c(-c2nc3cc(CN4CC[C@@H](C(=O)O)C4)cc(C#N)c3o2)cccc1-c1cccc(NC(=O)c2nc3c(n2C)CC(C)N(C)C3)c1Cl` (stereo partly drawn) [Example 160, (3R)-1-((2-(2′-chloro-2-methyl-3′-(1,5,6-trimethyl-4,5,6,7-tetrahydro-1H-imidazo[4,5-c]pyridine-2-carboxamido)biphenyl-3-yl)-7-cyanobenzo[d]oxazol-5-yl)methyl)pyrrolidine-3-carboxylic acid], the IC50 was no more than 10 nM. With `Cc1c(Nc2nccc3cc(CN4CCC(C(=O)O)CC4)cnc23)cccc1-c1cccc(-c2nc3cc(CNC[C@H](C)O)cc(C#N)c3o2)c1C` [Example 212, (S)-1-((8-(3′-(7-cyano-5-((2-hydroxypropylamino)methyl)benzo[d]oxazol-2-yl)-2,2′-dimethylbiphenyl-3-ylamino)-1,7-naphthyridin-3-yl)methyl)piperidine-4-carboxylic acid] the IC50 was no more than 10 nM. Compound `Cc1c(-c2nc3cc(CN4CC[C@@H](C(=O)O)C4)cc(Cl)c3o2)cccc1-c1cccc(-c2nc3c(s2)CN(C)CC3)c1C` [Example 71, (R)-1-((7-chloro-2-(2,2′-dimethyl-3′-(5-methyl-4,5,6,7-tetrahydrothiazolo[5,4-c]pyridin-2-yl)-[1,1′-biphenyl]-3-yl)benzo[d]oxazol-5-yl)methyl)pyrrolidine-3-carboxylic acid] has an IC50 of no more than 10 nM. `Cc1c(COc2cc(OCc3cncc(C#N)c3)c(CNCCO)cc2Cl)cccc1-c1cccc(-c2nc3cc(CN4CC[C@@H](C(=O)O)C4)cc(Cl)c3o2)c1C` [Example 150, (R)-1-((7-chloro-2-(3′-((2-chloro-5-((5-cyanopyridin-3-yl)methoxy)-4-(((2-hydroxyethyl)amino)methyl)phenoxy)methyl)-2,2′-dimethyl-[1,1′-biphenyl]-3-yl)benzo[d]oxazol-5-yl)methyl)pyrrolidine-3-carboxylic acid] gave an IC50 of 10 to 100 nM. `Cc1c(Nc2nccc3cc(C4=NCCN4)cnc23)cccc1-c1cccc(-c2nc3cc(CN4CC[C@@H](C(=O)O)C4)cc(C#N)c3o2)c1C` [Example 166, (R)-1-((7-cyano-2-(3′-(3-(4,5-dihydro-1H-imidazol-2-yl)-1,7-naphthyridin-8-ylamino)-2,2′-dimethylbiphenyl-3-yl)benzo[d]oxazol-5-yl)methyl)pyrrolidine-3-carboxylic acid] showed an IC50 of no more than 10 nM. `Cc1c(-c2nc3c(o2)CN(C(=O)CN2CC[C@@H](O)C2)C3)cccc1-c1cccc(-c2nc3cc(CN4CC[C@@](C)(C(=O)O)C4)cc(C#N)c3o2)c1C` [Example 247, (R)-1-((7-cyano-2-(3′-(5-(2-((R)-3-hydroxypyrrolidin-1-yl)acetyl)-5,6-dihydro-4H-pyrrolo[3,4-d]oxazol-2-yl)-2,2′-dimethyl-[1,1′-biphenyl]-3-yl)-benzo[d]oxazol-5-yl)methyl)-3-methylpyrrolidine-3-carboxylic acid] gave an IC50 of no more than 10 nM. `Cc1c(-c2nc3cc(CN4CC[C@@H](O)C4)cc(C#N)c3o2)cccc1-c1cccc(NC(=O)c2nc3c(n2C)CCN(C[C@H]2CC[C@H](C(=O)O)CC2)C3)c1Cl` [Example 261, trans-4-((2-(2-chloro-3′-(7-cyano-5-(((R)-3-hydroxypyrrolidin-1-yl)methyl)benzo[d]oxazol-2-yl)-2′-methylbiphenyl-3-ylcarbamoyl)-1-methyl-6,7-dihydro-1H-imidazo[4,5-c]pyridin-5 (4H)-yl)methyl)cyclohexanecarboxylic acid] showed an IC50 of no more than 10 nM. For `Cc1c(-c2nc3cc(CN4CC[C@@H](O)C4)cc(C#N)c3o2)cccc1-c1cccc(NC(=O)c2nc3c(n2C)CCN(C2CCCC(C(=O)O)CC2)C3)c1Cl` (stereo partly drawn) [Example 264, 4-(2-(2-chloro-3′-(7-cyano-5-(((R)-3-hydroxypyrrolidin-1-yl)methyl)benzo[d]oxazol-2-yl)-2′-methylbiphenyl-3-ylcarbamoyl)-1-methyl-6,7-dihydro-1H-imidazo[4,5-c]pyridin-5(4H)-yl)cycloheptane carboxylic acid], the IC50 was no more than 10 nM. Work on `Cc1c(-c2nc3cc(CN4CC[C@@H](O)C4)cc(C#N)c3o2)cccc1-c1cccc(NC(=O)c2nc3c(n2C)CCN(CCC2CCC(C(=O)O)CC2)C3)c1Cl` (stereo partly drawn) [Example 265, (R)-4-(2-(2-(2-chloro-3′-(7-cyano-5-((3-hydroxypyrrolidin-1-yl)methyl)benzo[d]oxazol-2-yl)-2′-methylbiphenyl-3-ylcarbamoyl)-1-methyl-6,7-dihydro-1H-imidazo[4,5-c]pyridin-5(4H)-yl)ethyl)cyclohexane carboxylic acid] yielded an IC50 of no more than 10 nM. Work on `Cc1c(-c2nc3cc(CN4CC[C@H](C(=O)O)C4)cc(Cl)c3o2)cccc1-c1cccc(Nc2nccc3cc(CN4CC[C@@H](O)C4)cnc23)c1Cl` [Example 81, (S)-1-((7-chloro-2-(2′-chloro-3′-(3-(((R)-3-hydroxypyrrolidin-1-yl)methyl)-1,7-naphthyridin-8-ylamino)-2-methylbiphenyl-3-yl)benzo[d]oxazol-5-yl)methyl)pyrrolidine-3-carboxylic acid] yielded an IC50 of no more than 10 nM. For `Cc1c(Nc2nccc3cc(CN4CCC4)cnc23)cccc1-c1cccc(-c2nc3cc(CN4CC[C@@H](C(=O)O)C4)cc(C#N)c3o2)c1C` [Example 135, (R)-1-((2-(3′-(3-(azetidin-1-ylmethyl)-1,7-naphthyridin-8-ylamino)-2,2′-dimethylbiphenyl-3-yl)-7-cyanobenzo[d]oxazol-5-yl)methyl)pyrrolidine-3-carboxylic acid], the IC50 was no more than 10 nM.
